Consider 16 molecules from patent publication US6545043B1 (priority 1997, dated 2003).

For data set [1] the following is noted: in vivo; cited from earlier work.
Data set [2] relates to Bean weevil, Acanthoscelides obtectus. Particulars: in vivo; cited from earlier work.
Data set [3] relates to Saw-toothed grain weevil, Oryzaephilus surinamensis. Particulars: in vivo; cited from earlier work.
The subject of data set [4] is Drugstore beetle, Stegobium paniceum. Particulars: in vivo; cited from earlier work.
The subject of data set [5] is Confused flour beetle, Tribolium confusum. Particulars: in vivo; cited from earlier work.
Data set [6] relates to Granary weevil, Sitophilus granarius. Particulars: in vivo; cited from earlier work.
Data set [7] deals with adult house fly (Musca domestica). Particulars: in vivo.
Data set [8] has as its system root-knot nematode (RKN) (Meloidogyne incognita) eggs. The settings on record: in vivo.
Data set [9] concerns lesser grain borer (Rhizopertha dominica). The settings on record: in vivo.
Data set [10] deals with adult house fly (Musca domestica). The settings on record: in vivo. The source holds these as a separate data set.
Data set [11] has the same test system. The data set is described as follows: whole plant or invertebrate. The settings on record: topical, 24 h, read-out: Percentage mortality at 24 h.
Data set [12] concerns root-knot nematode (RKN) (Meloidogyne incognita) eggs. Particulars: in vivo. This is another data set of the same source.
A further data set concerns weed seeds in soil. The settings on record: in vivo.
In data set [13] the test system is brine shrimp (Artemia franciscana). The data set is described as follows: whole plant or invertebrate.
In data set [14] the test system is yellow fever mosquito (Aedes aegypti) larvae. Put plainly: whole plant or invertebrate. Particulars: 24 h, read-out: % mortality at 1 ppm.
For data set [15], the system named is brine shrimp (Artemia franciscana). Particulars: in vivo.
The subject of data set [16] is soybean cyst nematode (SCN) (Heterodera glycines) eggs. The settings on record: in vivo.
In data set [17] the test system is house fly larvae (M. domestica). Particulars: in vivo; cited from earlier work.
Data set [18] has as its system five stored products pests (granary weevil, drugstore beetle, confused flour beetle, bean weevil, saw-toothed grain beetle). The settings on record: in vivo; cited from earlier work.
Where [19] appears, read: 24 h, read-out: % Mortality at 1 ppm.

Converted amounts (≈) assume the structure as drawn. “And” between values parts separate entries of the source, which are not always exact repeats. Identical values can stand only once. “Also recorded” adds a separate entry of the source. Like-named read-outs stand apart in the source and are kept apart here. Some results are limits rather than exact numbers.

Consider `CNC(=O)O/N=C/C(C)(C)SC` [Aldicarb], for which the “mammalian LD50” value in [1] is 1 mg/kg.

Take `S=C=S` [carbon disulfide]: the “LC50 for 6 h” value in data set [2] is 29.0 µg/mL; in [3], 40.0 µg/mL; in [4], 42.0 µg/mL; in [5] it was 75.0 µg/mL; in [6], 43.0 µg/mL.

Turning to `C=CC(O)C#N` (stereo not shown) [CHP, 3-cyano-3-hydroxy-1-propene], the median lethal concentration (LC50) in data set [7] amounted to 0.15 µg/mL (≈ 1.81 µM); in [9], 0.37 µg/mL (≈ 4.45 µM). For the same molecule, the “percent hatch, highest in the 22-day period” value in data set [8] is given as at most 19%. In addition, the “effectiveness as topical pesticide” value in data set [10] is on record as “relatively weak”. For the same molecule, the mortality at 9.8 µg/fly in data set [11] stood at 5%. Also, in [11], the mortality at 98 µg/fly was determined as 100%. Also, the “percent hatch, highest in the 22-day observation period” value in data set [12] was at most 34.4%.

Take `C=CC(C#N)OC(C)=O` (stereo not shown) [CHP-Ace, CHP acetate]: the “Severity (bacteria and fungal colonies formed)” value with soil bacteria is given as “completely inhibited growth; also recorded: No bacteria or fungal colonies”. In addition, in data set [7], the LC50 stood at 0.26 µg/mL and the “times less effective than dichlorvos” value is “about 20 times”. Besides, the “percent hatch, highest in the 22-day period” value in data set [8] was at most 42.6%. For the same molecule, the “effect on post-emergent weeds (observation)” value in the data set with weed seeds in soil is listed as “kill post-emergent weeds”. Besides, in [9], the LC50 is 0.37 µg/mL. In [11], the mortality at 10 µg/fly stood at 0% and the mortality at […] came to 100%. In data set [12], the Percent hatch is 0.0% and 5.4% and 5.6% and 0.8% and 1.5% and 4.9% and 5.2% and 5.3%; the “percent hatch, highest in the 22-day observation period” value is at most 5.6%.

Consider `C=CCN=C=S` [AITC, allyl isothiocyanate], for which the mortality at 1 ppm in data set [13] (setting [19]) came out at 97%; in [14] it was 83%. Besides, the LC50 in data set [7] stood at 0.13 µg/mL (≈ 1.31 µM); in data set [9], 1.57 µg/mL (≈ 15.8 µM). For the same molecule, the mortality at 99 µg/fly in [11] was determined as 45%.

As for `N#CC(O)c1ccccc1` (stereo not shown) [mandelonitrile], in data set [8], the “percent hatch, highest in the 22-day period” value is at most 29.7%.

Take `C=CCC#N` [AC, allyl cyanide]: the results for the mortality at 1 ppm in data set [13] (setting [19]) and in data set [14] were 7% and 3%, respectively. Also, the LC50 in [7] turned out to be 3.66 µg/mL (≈ 54.6 µM); in data set [9] it was 2.8 µg/mL (≈ 41.7 µM). In addition, in data set [15], the “effectiveness as aquatic pesticide” value is listed as “very weak”. Also, the mortality at 97 µg/fly in data set [11] was 15%.

As to `C=CC(C#N)OC(=O)/C=C/c1ccccc1` (stereo not shown) [CHP cinnamate], in data set [13], the mortality at 1 ppm worked out at 95%, the mortality at 10 ppm was 100% and the mortality at 100 ppm is 100%. Besides, the “effectiveness as aquatic pesticide” value in data set [15] is “moderately toxic”. For the same molecule, in data set [11], the mortality at 1 µg/fly was determined as 0%, the mortality at 10 µg/fly is about 50% and the mortality at 100 µg/fly stood at 87%.

With `C1CO1` [ethylene oxide], the “LC50 for 6 h” value is 10.5 µg/mL in data set [2]; 4.0 µg/mL in [3]; 9.0 µg/mL in data set [4]; 27.5 µg/mL in [5]; 13.5 µg/mL in [6].

Regarding `C=CC(O)CC#N` (stereo not shown) [CHB, 1-cyano-2-hydroxy-3-butene], the mortality at 1 ppm in [13] (setting [19]) was 13%. Besides, the mortality at 1 ppm in [14] came to 17%. For the same molecule, the LC50 in data set [7] worked out at 6.2 µg/mL (≈ 63.8 µM). In addition, the “effectiveness as aquatic pesticide” value in data set [15] is listed as “very weak”. The “[…] HATCH” value in [16] was −70% and −73%. Further, the “times less effective than dichlorvos” value in data set [9] is on record as “about 68 times”. Further, in data set [11], the mortality at 10.7 µg/fly is 0% and the mortality at 107 µg/fly was determined as 55%.

For the molecule `C=CCSC#N` [ATC, allyl thiocyanate], the mortality at 1 ppm in data set [13] (setting [19]) turned out to be 47%; in data set [14], 57%. Besides, in data set [15], the “effectiveness as aquatic pesticide” value is given as “very weak”. Further, the mortality at 101 µg/fly in data set [11] came to 35%.

With `CC1(C)C(C=C(Cl)Cl)C1C(=O)OCc1cccc(Oc2ccccc2)c1` (stereo not shown) [permethrin], the mortality entry in data set [17] was “roughly 98%”.

For the molecule `CBr` [methyl bromide], the “LC50 for 6 h” value in data set [2] was 4.2 µg/mL; in data set [3], 4.4 µg/mL; in data set [4], 4.4 µg/mL; in data set [5] it was 9.2 µg/mL; in data set [6], 4.8 µg/mL. For the same molecule, the “Severity of depression of microbial activity” value with soil microbial activity is “Slightly Depressed; also recorded: severe depression; also recorded: Severely Depressed”. For the same molecule, the “LC50 values, range over five stored products pests” value in [18] is 4.2 to 9.2 µg/mL.

In the case of `O=C(O)C=Cc1ccccc1` [cinnamic acid, reference compound], in [13], the mortality at 1 ppm was 30%, the mortality at 10 ppm is 45% and the mortality at 100 ppm came to 100%. The “effectiveness as topical pesticide” value in data set [10] is on record as “not an effective biopesticide”. Moreover, in [11], the mortality at 1 µg/fly amounted to 0%, the mortality at 10 µg/fly worked out at 0% and the mortality at 100 µg/fly amounted to 0%.

As to `CC(C)=CCC/C(C)=C/C(O)C#N` (stereo not shown) [citryl cyanohydrin], in data set [13], the mortality at 1 ppm was found to be 0%, the mortality at 10 ppm was 0% and the mortality at 100 ppm is 87%. In [10], the “Percentage mortality at 24 h” value amounted to 9% and the “effectiveness as topical pesticide” value is on record as “not active”. Further, the mortality at 1 µg/fly in [11] is 8%.

Turning to `C=CC#N` [acrylonitrile], the “LC50 for 6 h” value in data set [2] was 1.1 µg/mL; in data set [3], 0.8 µg/mL; in [4] it was 1.7 µg/mL; in data set [5], 3.0 µg/mL; in data set [6], 2.0 µg/mL.

As a reminder, the LC50 is the concentration that kills 50% of the test population. Lower therefore signals a more lethal substance. As usually defined, the mortality is the percentage killed.
